Data published in patent publication US20190117574A1, “SURFACE-MODIFIED MICROSPHERE COMPOSITION, APPLICATION OF THE SAME, AND METHOD OF PREPARING THE SAME” (INSTITUTE OF NUCLEAR ENERGY RESEARCH, ATOMIC ENERGY …, priority 2017, published 2019).

System: mice with FCA-induced arthritis
Assay: Treatment of mice with FCA-induced arthritis: ankle joint diameter
Format: in vivo, mice (C57BL/6)
Conditions: 10 mg/kg/ml, subdermal injection around right tibiotarsal joint on day 21 after FCA, FIG. 8
Experimental: Animal Model Created with Arthritis Induced by Freund's Complete Adjuvant (FCA) 24 male mice (C57BL/6, purchased from the National Laboratory Animal Center, Taipei, Taiwan) weighing 20-25 g (8 weeks old) are provided. The mice are each given a subdermal injection of 0.1 ml of FCA at the tibiotarsal joint of the right hind leg and 0.05 ml of FCA on the subplantar side of the right hind paw to induce the development of arthritis. Afterward, thermal images are taken of the mice with a thermal imaging camera on day 0, day 3, and day 14 after injected with FCA, respectively. The diameters of ankle joints of left and right hind legs of the mice are measured with a vernier caliper are surveyed and recorded for 2 or 3 days. The mice with FCA-induced arthritis are administered with a neutrophil elastase 680 FAST probe through trail veins on day 21 and observed with IVIS (non-invasion in vivo imaging system) to confirm whether neutrophil elastase is produced at the location where FCA is injected.
The animal model created with FCA-induced arthritis is described above. 24 mice which conform to the animal model created with FCA-induced arthritis are provided. […]
Upon completion of the subdermal injection of the reagents into the four groups of mice, the diameters of left and right ankle joints and body weight of the mice are measured with a vernier caliper and recorded for 2 or 3 days.

O=C(O)Cc1ccccc1Nc1c(Cl)cccc1Cl [free diclofenac sodium, diclofenac sodium]
reduction of swelling of ankles (ankle joint diameter) compared with saline: more effective than saline in reducing the swelling of the mice's ankles
